Experimental data taken from patent publication US20100063085A1, “METHOD OF TREATING LEARNING IMPAIRMENT IN DOWN'S SYNDROME SUBJECTS” (University Court of The University of Dundee, priority 2008, published 2010).
Read-outs that look alike come from different tables or passages of the source.

What was measured:
MARK3 = MARK3 (Homo sapiens, UniProt P27448); assay: biochemical; conditions: read-out: MARK3 activity as percentage of control without inhibitor
Procedure: (§1) All assays (25.5 μl) were carried out at room temperature (21° C.) and were linear with respect to time and enzyme concentrations under the conditions used. Assays were performed for 30 minutes except assays for LCK and PKB which were performed for 15 minutes using Multidrop Micro reagent dispensers (Thermo Electron Corporation, Waltham, Mass. 02454, USA) in a 96-well format. The concentration of […] [γ-^33P] ATP (800 cpm/pmol) in the assays was one of three concentrations (5, 20 or 50 μM) in order to be at or below Km for ATP for the enzyme. Assays were initiated with MgATP and stopped by addition of 5 μl of 0.5M orthophosphoric acid. Assays were then harvested onto P81 filterplates using a unifilter harvester (PerkinElmer, Boston, Mass. 02118, USA), with a wash buffer of 50 mM orthophosphoric acid. Filterplates were then air dried overnight. 10 μl of Microscint O was added per well prior to counting for radioactivity.
(§2) The following kinases were assayed against the substrates indicated. Aurora B was assayed against the substrate peptide […] (300 μM), ERK8 and MST-2 were both assayed against MBP (0.33 mg/ml). IKKβ was assayed against the substrate peptide […] (300 μM), JNK3 was assayed against 3 μM ATF2[19-96]. MAPKAP-K3 and PKD1 were both assayed against […] (30 μM), MARK3 was assayed against CHKtide ([…]) substrate peptide (300 μM). MNK1 and MNK2 were both assayed against eIF4E protein (0.5 mg/ml). NEK7 was assayed against […] (300 μM), PIM2 was assayed against […] (300 μM), ΔPH PKBβ-S474D was assayed against Crosstide (30 μM), PLK1 was assayed against […] (300 μM). PRK2 was assayed against Long S6 peptide, […] (30 μM), RSK2 was assayed against […] (30 μM), SRC was assayed against cdc2 peptide, […], (300 μM) and SRPK1 was assayed against peptide […] (300 μM). All enzymes were diluted in 50 mM Tris/HCl pH 7.5, 0.1 mM EGTA, 1 mg/ml BSA, 0.1% β-mercaptoethanol buffer and assayed in an incubation containing 50 mM Tris/HCl pH7.5, 0.1 mM EGTA, 0.1% β-mercaptoethanol, CAMK-1 (5-20 mU) diluted in 50 mM Tris/HCl pH 7.5, 0.1 mM EGTA, 1 mg/ml BSA, 0.1% β-mercaptoethanol is assayed against substrate peptide […] in an incubation containing 50 mM Tris/HCl pH 7.5, 0.1 mM EGTA, 0.5 mM CaCl2, 0.3 μM calmodulin, 0.1% β-mereaptoethanol, 300 μM substrate peptide, 10 mM magnesium acetate and 0.05 mM [^33P-γ-ATP] (500-1000 cpm/pmole). EF2K (5-20 mU) diluted in 50 mM Hepes pH 6.6, 0.1% β-mercaptoethanol, 1 mg/ml BSA is assayed against a substrate peptide […] in an incubation containing 50 mM Hepes pH 6.6, 0.2 mM CaCl2, 0.3 μM Calmodulin, 0.05% b-mercaptoethanol, 300 μM substrate peptide, 10 mM magnesium acetate and 0.05 mM [^33P-γ-ATP] (500-1000 cpm/pmole).

MAPKAP-K3 = MAPKAP-K3 (Homo sapiens, UniProt Q16644); assay: biochemical; conditions: read-out: MAPKAP-K3 activity as percentage of control without inhibitor
Sequence of MAPKAP-K3 (Q16644 whole entry, species assumed): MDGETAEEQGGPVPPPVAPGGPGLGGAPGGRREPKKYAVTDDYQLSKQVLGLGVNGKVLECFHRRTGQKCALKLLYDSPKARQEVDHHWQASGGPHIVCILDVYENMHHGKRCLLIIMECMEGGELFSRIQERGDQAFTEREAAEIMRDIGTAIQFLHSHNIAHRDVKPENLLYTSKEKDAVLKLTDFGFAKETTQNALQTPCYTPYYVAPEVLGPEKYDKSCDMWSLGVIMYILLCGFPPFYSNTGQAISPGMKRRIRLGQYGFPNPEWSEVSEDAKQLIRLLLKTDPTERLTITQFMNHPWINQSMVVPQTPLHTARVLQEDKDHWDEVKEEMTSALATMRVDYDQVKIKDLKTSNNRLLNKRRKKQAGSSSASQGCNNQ
Procedure: as §1, §2

SAPK3/p38g = target: T1, SAPK3/p38g (Homo sapiens, UniProt P53778); assay: SAPK3/p38g 33P kinase assay; assay type: biochemical; conditions: read-out: SAPK3/p38g activity as percentage of control without inhibitor
T1 sequence (P53778 1-367): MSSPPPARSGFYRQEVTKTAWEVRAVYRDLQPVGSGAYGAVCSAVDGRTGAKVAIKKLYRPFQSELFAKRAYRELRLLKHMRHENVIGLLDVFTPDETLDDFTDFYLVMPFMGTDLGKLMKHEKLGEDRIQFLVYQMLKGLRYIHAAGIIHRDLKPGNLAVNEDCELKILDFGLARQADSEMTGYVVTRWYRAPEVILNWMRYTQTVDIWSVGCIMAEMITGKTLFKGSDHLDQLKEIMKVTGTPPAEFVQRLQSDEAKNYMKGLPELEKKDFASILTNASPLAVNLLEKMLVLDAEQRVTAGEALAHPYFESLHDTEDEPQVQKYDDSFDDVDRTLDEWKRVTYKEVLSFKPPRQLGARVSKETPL
Procedure: as §1
MKK1, JNK/SAPK1c, SAPK2a/p38, SAPK2b/p38β2, SAPK3/p38γ, SAPK4/p38δ, MAPK2/ERK2, MAPKAP-K1β, MAPKAP-K2, MSK1, PRAK, PKA, PKCα, PDK1, SGK, p70S6K, GSK3β, ROCK-II, PRK2, AMPK, CHK1, CHK2, CK2, PHK, LCK, were assayed according to Davies et al., (Davies, S. P., Reddy, H., Caivano, M. and Cohen, P. Biochem. J. 351, 95-105, 2000.
CSK and CDK2/cyclinA, were assayed according to Bain et al. (Bain J, McLauchlan H, Elliott M, Cohen P. Biochem J. 371, 199-204, 2003., except that ATP concentrations were either 5, 20 or 50 micromolar so that they were at or below the Km for ATP. The ATP concentrations used were as follows, 5 μM for assays of MKK1, SAPK3, SAPK4, GSK3β, PRK2 CK2 20 μm for assays of JNK, SAPK2β, MAPKAP-K2, MSK1, PRAK, PKA, […], PDK1, SGK, p70S6K, ROCK-II, CHK1, CHK2, CSK, CDK2, and 50 μM for assays of SAPK2a, MAPK2/ERK2, AMPK, LCK, PHK and MAPKAP-K1β.

PKBb = PKBb (Homo sapiens, UniProt P31751, S474D); assay: PKBb 33P kinase assay; assay type: biochemical; conditions: read-out: PKBb activity as percentage of control without inhibitor
Sequence of PKBb (P31751 120-481 S474D limits assumed): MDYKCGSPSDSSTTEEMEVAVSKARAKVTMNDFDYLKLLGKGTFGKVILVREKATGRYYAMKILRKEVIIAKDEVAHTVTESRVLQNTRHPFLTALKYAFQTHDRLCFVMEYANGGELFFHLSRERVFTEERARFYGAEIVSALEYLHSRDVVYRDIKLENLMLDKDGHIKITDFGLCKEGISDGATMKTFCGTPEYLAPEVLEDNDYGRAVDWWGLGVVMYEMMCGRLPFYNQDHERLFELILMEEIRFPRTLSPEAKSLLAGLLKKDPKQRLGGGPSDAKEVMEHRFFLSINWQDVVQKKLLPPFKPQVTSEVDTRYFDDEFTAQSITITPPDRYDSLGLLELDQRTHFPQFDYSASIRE
Procedure: as §1, §2
ΔPH-PKBbeta-S474D (5-20 mU diluted in 50 mM Tris pH 7.5, 0.1 mM EGTA, 0.1% β-mercaptoethanol, 1 mg/ml BSA) is assayed against a modified Crosstide peptide ([…]) in a final volume of 25.5 μl containing 50 mM Tris pH 7.5, 0.05% β-mercaptoethanol, 30 μM substrate peptide, 10 mM magnesium acetate and 0.05 mM [^33P- γATP] (50-1000 cpm/pmole) and incubated for 30 min at room temperature.

Sequence of MARK3 (P27448 whole entry, species assumed): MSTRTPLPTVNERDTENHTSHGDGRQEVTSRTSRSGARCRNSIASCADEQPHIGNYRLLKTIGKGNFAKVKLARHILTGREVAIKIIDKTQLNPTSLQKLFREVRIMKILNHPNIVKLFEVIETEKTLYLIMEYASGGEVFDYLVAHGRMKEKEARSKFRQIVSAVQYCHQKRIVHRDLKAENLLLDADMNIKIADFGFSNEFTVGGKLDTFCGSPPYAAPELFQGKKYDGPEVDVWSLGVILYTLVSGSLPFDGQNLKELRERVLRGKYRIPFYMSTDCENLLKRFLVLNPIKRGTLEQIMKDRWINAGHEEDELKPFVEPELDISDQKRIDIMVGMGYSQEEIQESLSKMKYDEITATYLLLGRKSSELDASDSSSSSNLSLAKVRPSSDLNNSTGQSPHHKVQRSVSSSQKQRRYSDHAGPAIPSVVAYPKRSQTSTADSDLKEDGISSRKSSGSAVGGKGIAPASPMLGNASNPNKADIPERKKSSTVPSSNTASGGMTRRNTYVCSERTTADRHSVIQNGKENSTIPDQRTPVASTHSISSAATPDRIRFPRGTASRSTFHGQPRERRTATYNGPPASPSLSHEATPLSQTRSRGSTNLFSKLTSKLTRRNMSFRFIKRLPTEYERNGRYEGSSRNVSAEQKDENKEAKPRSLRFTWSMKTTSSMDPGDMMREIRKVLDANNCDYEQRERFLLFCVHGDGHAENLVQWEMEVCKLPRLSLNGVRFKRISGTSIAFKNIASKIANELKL

Row | SMILES | remaining activity at 1 µM (MARK3; inhibitor 1 μM) [%] | remaining activity at 10 µM (MARK3; inhibitor 10 μM) [%] | remaining activity at 1 µM (MAPKAP-K3; inhibitor 1 μM) [%] | remaining activity at 10 µM (MAPKAP-K3; inhibitor 10 μM) [%] | remaining activity at 1 µM (SAPK3/p38g; inhibitor 1 μM) [%] | remaining activity at 10 µM (SAPK3/p38g; inhibitor 10 μM) [%] | remaining activity at 1 µM (PKBb; inhibitor 1 μM) [%] | remaining activity at 10 µM (PKBb; inhibitor 10 μM) [%] | remaining activity at 1 µM (MARK3) [%] | remaining activity at 10 µM (MARK3) [%] | remaining activity at 1 µM (MAPKAP-K3) [%] | remaining activity at 10 µM (MAPKAP-K3) [%] | remaining activity at 1 µM (SAPK3/p38g) [%] | remaining activity at 10 µM (SAPK3/p38g) [%] | remaining activity at 1 µM (PKBb) [%] | remaining activity at 10 µM (PKBb) [%]
1 | COc1ccc2c3c([nH]c2c1)C(C)=NCC3 [Harmaline] | 99 | 103 | 79 | 82 | 98 | 94 | 97 | 96 | – | – | – | – | – | – | – | –
2 | CC1=NCCc2c1[nH]c1cc(O)ccc21 [Harmalol] | 93 | 84 | 95 | 88 | 98 | 92 | 103 | 77 | – | – | – | – | – | – | – | –
3 | COc1ccc2c(c1)[nH]c1c(C)nccc12 [Harmine] | – | – | – | – | – | – | – | – | 86 | 86 | 89 | 93 | 82 | 72 | 94 | 101
